The text below walks through data of US20230227427A1, “IL-17A MODULATORS” (SANOFI, priority 2010, published 2023).

Molecules are shown by their SMILES.

The target in the first assay is T1, human recombinant IL-17A (Homo sapiens, UniProt Q16552).
T1 construct: purchased R&D Systems 7955-IL/CF
T1 sequence (Q16552 24-155): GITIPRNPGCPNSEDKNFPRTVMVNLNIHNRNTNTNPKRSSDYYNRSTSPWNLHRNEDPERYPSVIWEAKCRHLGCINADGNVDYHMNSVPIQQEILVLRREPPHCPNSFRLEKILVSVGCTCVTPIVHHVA
Kind of assay: IL-17A AlphaLISA assay (block binding of IL-17A to its receptor IL-17RA). Particulars: compounds pre-incubated with the IL-17A for 30 min (indicated by * in Table A); read-out: AlphaLISA pIC50 (converted). In outline: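 Compounds pre-incubated 24 h at RT (30 min where flagged) with human IL-17A (7.5 nM stock) before IL-17RA/Fc (5 nM stock), 90 min. Read by AlphaLISA via anti-Fc acceptor and biotin anti-IL-17A/streptavidin donor beads, 680/615 nm. 4-parameter fit; DMSO and 6 μM reference inhibitor as controls; pIC50.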
On the technique in general: In Alpha technology, singlet oxygen from a donor bead excites a nearby acceptor bead.
Consider `Cn1nncc1C(=O)N[C@H](C(=O)Nc1ccc(-c2c(Cl)cnn2C)cn1)[C@H]1CC[C@H](C)CC1` [Example 200, N—((S)-2-((5-(4-chloro-1-methyl-1H-pyrazol-5-yl)pyridin-2-yl)amino)-1-((1r,4S)-4-methylcyclohexyl)-2-oxoethyl)-1-methyl-1H-1,2,3-triazole-5-carboxamide], for which the IC50 was 0.398 µM.

For the compound `Cc1noc(C)c1-c1ccc(NC(=O)[C@@H](NC(=O)c2ccnn2C(C)C)C2CCCCC2)nc1` [Example 108, (S)—N-(1-Cyclohexyl-2-((5-(3,5-dimethylisoxazol-4-yl)pyridin-2-yl)amino)-2-oxoethyl)-1-isopropyl-1H-pyrazole-5-carboxamide], the IC50 was 0.126 µM.

As for `Cc1cnn(C)c1-c1ccc(NC(=O)[C@@H](NC(=O)c2conc2C)[C@H]2CC[C@H](C)CC2)nc1` [Example 131, N—((S)-2-((5-(1,4-Dimethyl-1H-pyrazol-5-yl)pyridin-2-yl)amino)-1-((1r,4S)-4-methylcyclohexyl)-2-oxoethyl)-3-methylisoxazole-4-carboxamide], the IC50 is 0.0631 µM.

Consider `Cc1cc(NC(=O)[C@@H](NC(=O)c2ccnn2C)[C@H]2CC[C@H](C)CC2)ncc1-c1ccnn1C` [Example 146, 1-methyl-N—((S)-2-((4-methyl-5-(1-methyl-1H-pyrazol-5-yl)pyridin-2-yl)amino)-1-((1r,4S)-4-methylcyclohexyl)-2-oxoethyl)-1H-pyrazole-5-carboxamide], for which the IC50 was 0.501 µM.

As for `Cc1n[nH]c(C)c1-c1ccc(NC(=O)[C@@H](NC(=O)c2ccnn2C)C2CCCCC2)cn1` [Example 207, (S)—N-(1-cyclohexyl-2-((6-(3,5-dimethyl-1H-pyrazol-4-yl)pyridin-3-yl)amino)-2-oxoethyl)-1-methyl-1H-pyrazole-5-carboxamide], the IC50 is 0.501 µM.

For the compound `CCc1nocc1C(=O)N[C@H](C(=O)Nc1cnc(-c2c(C)cnn2C)c(F)c1)[C@H]1CC[C@H](C)CC1` [Example 180, N—((S)-2-((6-(1,4-dimethyl-1H-pyrazol-5-yl)-5-fluoropyridin-3-yl)amino)-1-((1r,4S)-4-methylcyclohexyl)-2-oxoethyl)-3-ethylisoxazole-4-carboxamide], the IC50 is 0.158 µM.

`Cc1c(-c2ccc(NC(=O)[C@@H](NC(=O)c3ccnn3C)C3CCCCC3)cc2)ccc(=O)n1C` [Example 119, (S)—N-(1-Cyclohexyl-2-((4-(1,2-dimethyl-6-oxo-1,6-dihydropyridin-3-yl)phenyl)amino)-2-oxoethyl)-1-methyl-1H-pyrazole-5-carboxamide]: the IC50 is 0.501 µM.

Take `Cc1noc(C)c1-c1ncc(NC(=O)[C@@H](NC(=O)c2ccnn2C)[C@H]2CC[C@H](C)CC2)cn1` [Example 135, N—((S)-2-((2-(3,5-dimethylisoxazol-4-yl)pyrimidin-5-yl)amino)-1-((1r,4S)-4-methylcyclohexyl)-2-oxoethyl)-1-methyl-1H-pyrazole-5-carboxamide]: the IC50 is 0.398 µM.

Regarding `CCn1nccc1C(=O)N[C@H](C(=O)Nc1ccc(-c2c(C)nnn2C)cn1)C1CCCCCC1` [Example 149, (S)—N-(1-cycloheptyl-2-((5-(1,4-dimethyl-1H-1,2,3-triazol-5-yl)pyridin-2-yl)amino)-2-oxoethyl)-1-ethyl-1H-pyrazole-5-carboxamide], the IC50 was 0.0794 µM.

Consider `Cc1cnn(C)c1-c1ccc(NC(=O)[C@@H](NC(=O)c2conc2C(C)(C)C)[C@H]2CC[C@H](C)CC2)nc1` [Example 192, 3-(tert-butyl)-N—((S)-2-((5-(1,4-dimethyl-1H-pyrazol-5-yl)pyridin-2-yl)amino)-1-((1r,4S)-4-methylcyclohexyl)-2-oxoethyl)isoxazole-4-carboxamide], for which the IC50 is 0.2 µM.

In the case of `Cc1cnn(C)c1-c1ccc(NC(=O)[C@@H](NC(=O)c2ccnn2C)C2CCCCC2)nc1` [Example 177, (S)—N-(1-cyclohexyl-2-((5-(1,4-dimethyl-1H-pyrazol-5-yl)pyridin-2-yl)amino)-2-oxoethyl)-1-methyl-1H-pyrazole-5-carboxamide], the IC50 was 0.2 µM.

For the compound `Cc1nocc1C(=O)N[C@H](C(=O)Nc1ccc(-c2c(C)noc2C)cn1)C1CCCCC1` [Example 121, (S)—N-(1-Cyclohexyl-2-((5-(3,5-dimethylisoxazol-4-yl)pyridin-2-yl)amino)-2-oxoethyl)-3-methylisoxazole-4-carboxamide], the IC50 is 0.251 µM.

Consider `Cc1nocc1C(=O)N[C@H](C(=O)Nc1ccc(-c2c(C)noc2C)cn1)[C@H]1CC[C@H](C)CC1` [Example 112, N—((S)-2-((5-(3,5-dimethylisoxazol-4-yl)pyridin-2-yl)amino)-1-((1r,4S)-4-methylcyclohexyl)-2-oxoethyl)-3-methylisoxazole-4-carboxamide], for which the IC50 is 0.1 µM.

As for `CCn1nccc1C(=O)N[C@H](C(=O)Nc1ccc(-c2c(C)nnn2C)cn1)[C@H]1CC[C@H](C)CC1` [Example 159, N—((S)-2-((5-(1,4-dimethyl-1H-1,2,3-triazol-5-yl)pyridin-2-yl)amino)-1-((1r,4S)-4-methylcyclohexyl)-2-oxoethyl)-1-ethyl-1H-pyrazole-5-carboxamide], the IC50 is 0.1 µM.

Still in this assay, the particulars now being: compounds pre-incubated with the IL-17A for 24 h at room temperature; read-out: AlphaLISA pIC50 (converted).
As to `COc1c[n+]([O-])cc(OC)c1-c1ccc(NC(=O)[C@@H](NC(=O)c2ccnn2C)C(c2ccccc2)c2ccccc2)cc1` [Example 27, (S)-3,5-dimethoxy-4-(4-(2-(1-methyl-1H-pyrazole-5-carboxamido)-3,3-diphenylpropanamido)phenyl)pyridine 1-oxide], the IC50 was 0.00501 µM.

With `Cn1nccc1C(=O)N[C@H](C(=O)Nc1ccc(-c2cccc(=O)n2C)c(F)c1)C(c1ccccc1)c1ccccc1` [Example 71, (S)—N-(1-((3-fluoro-4-(1-methyl-6-oxo-1,6-dihydropyridin-2-yl)phenyl)amino)-1-oxo-3,3-diphenylpropan-2-yl)-1-methyl-1H-pyrazole-5-carboxamide], the IC50 was 0.0158 µM.

For the compound `Cc1cncc(C)c1-c1ccc(NC(=O)[C@@H](NC(=O)c2ccnn2C)C(c2ccccc2)c2ccccc2)cc1Cl` [Example 55, (S)—N-(1-((3-chloro-4-(3,5-dimethylpyridin-4-yl)phenyl)amino)-1-oxo-3,3-diphenylpropan-2-yl)-1-methyl-1H-pyrazole-5-carboxamide], the IC50 was 0.1 µM.

Turning to `Cc1noc(C)c1-c1ccc(NC(=O)[C@@H](NC(=O)c2ccnn2C)[C@H]2CC[C@H](C)CC2)cc1` [Example 96, N—((S)-2-((4-(3,5-Dimethylisoxazol-4-yl)phenyl)amino)-1-((1r,4S)-4-methylcyclohexyl)-2-oxoethyl)-1-methyl-1H-pyrazole-5-carboxamide], the IC50 is 0.0501 µM.

Regarding `CN(C)c1cnccc1-c1ccc(NC(=O)[C@@H](NC(=O)c2ccnn2C)C(c2ccccc2)c2ccccc2)cc1` [Example 8, (S)—N-(1-((4-(3-(dimethylamino)pyridin-4-yl)phenyl)amino)-1-oxo-3,3-diphenylpropan-2-yl)-1-methyl-1H-pyrazole-5-carboxamide], the IC50 was 0.0158 µM.

With `Cn1nccc1C(=O)N[C@H](C(=O)Nc1ccc(-c2ccncc2C(F)(F)F)cc1)C(c1ccccc1)c1ccccc1` [Example 5, (S)-1-methyl-N-(1-oxo-3,3-diphenyl-1-((4-(3-(trifluoromethyl)pyridin-4-yl)phenyl)amino)propan-2-yl)-1H-pyrazole-5-carboxamide], the IC50 is 0.0631 µM.

As to `Cc1cc(=O)[nH]cc1-c1ccc(NC(=O)[C@@H](NC(=O)c2ccnn2C)C(c2ccccc2)c2ccccc2)cc1` [Example 50, (S)-1-methyl-N-(1-((4-(4-methyl-6-oxo-1,6-dihydropyridin-3-yl)phenyl)amino)-1-oxo-3,3-diphenylpropan-2-yl)-1H-pyrazole-5-carboxamide], the IC50 is 0.0398 µM.

Turning to `Cn1nccc1C(=O)N[C@H](C(=O)Nc1ccc(-c2cnc(=O)[nH]c2)c(F)c1)C(c1ccccc1)c1ccccc1` [Example 64, (S)—N-(1-((3-fluoro-4-(2-oxo-1,2-dihydropyrimidin-5-yl)phenyl)amino)-1-oxo-3,3-diphenylpropan-2-yl)-1-methyl-1H-pyrazole-5-carboxamide], the IC50 was 0.398 µM.

As for `CCn1nccc1C(=O)N[C@H](C(=O)Nc1ccc(-c2cn[nH]c(=O)c2)c(F)c1)C(c1ccccc1)c1ccccc1` [Example 67, (S)-1-ethyl-N-(1-((3-fluoro-4-(6-oxo-1,6-dihydropyridazin-4-yl)phenyl)amino)-1-oxo-3,3-diphenylpropan-2-yl)-1H-pyrazole-5-carboxamide], the IC50 is 0.398 µM.

`Cn1nccc1C(=O)N[C@H](C(=O)Nc1ccc(-c2cc[nH]c(=O)c2)c(F)c1)C(c1ccccc1)c1ccccc1` [Example 35, (S)—N-(1-((3-fluoro-4-(2-oxo-1,2-dihydropyridin-4-yl)phenyl)amino)-1-oxo-3,3-diphenylpropan-2-yl)-1-methyl-1H-pyrazole-5-carboxamide]: the IC50 was 0.0251 µM.

Turning to `Cc1c(-c2c(F)cc(NC(=O)[C@@H](NC(=O)c3ccnn3C)C(c3ccccc3)c3ccccc3)cc2F)ccc(=O)n1C` [Example 29, (S)—N-(1-((4-(1,2-dimethyl-6-oxo-1,6-dihydropyridin-3-yl)-3,5-difluorophenyl)amino)-1-oxo-3,3-diphenylpropan-2-yl)-1-methyl-1H-pyrazole-5-carboxamide], the IC50 is 0.02 µM.

Consider `Cn1nccc1C(=O)N[C@H](C(=O)Nc1ccc(-c2ccncc2F)cc1)C(c1ccccc1)c1ccccc1` [Example 36, (S)—N-(1-((4-(3-fluoropyridin-4-yl)phenyl)amino)-1-oxo-3,3-diphenylpropan-2-yl)-1-methyl-1H-pyrazole-5-carboxamide], for which the IC50 is 0.0794 µM.
